Consider 14 compounds from ChEMBL document CHEMBL2021834, “Novel sulfonylurea derivatives as H3 receptor antagonists. Preliminary SAR studies” (Eur J Med Chem, 2012).

The target in this experiment is Voltage-gated inwardly rectifying potassium channel KCNH2 (Homo sapiens, UniProt Q12809).
Sequence of Voltage-gated inwardly rectifying potassium channel KCNH2 (Q12809 whole entry): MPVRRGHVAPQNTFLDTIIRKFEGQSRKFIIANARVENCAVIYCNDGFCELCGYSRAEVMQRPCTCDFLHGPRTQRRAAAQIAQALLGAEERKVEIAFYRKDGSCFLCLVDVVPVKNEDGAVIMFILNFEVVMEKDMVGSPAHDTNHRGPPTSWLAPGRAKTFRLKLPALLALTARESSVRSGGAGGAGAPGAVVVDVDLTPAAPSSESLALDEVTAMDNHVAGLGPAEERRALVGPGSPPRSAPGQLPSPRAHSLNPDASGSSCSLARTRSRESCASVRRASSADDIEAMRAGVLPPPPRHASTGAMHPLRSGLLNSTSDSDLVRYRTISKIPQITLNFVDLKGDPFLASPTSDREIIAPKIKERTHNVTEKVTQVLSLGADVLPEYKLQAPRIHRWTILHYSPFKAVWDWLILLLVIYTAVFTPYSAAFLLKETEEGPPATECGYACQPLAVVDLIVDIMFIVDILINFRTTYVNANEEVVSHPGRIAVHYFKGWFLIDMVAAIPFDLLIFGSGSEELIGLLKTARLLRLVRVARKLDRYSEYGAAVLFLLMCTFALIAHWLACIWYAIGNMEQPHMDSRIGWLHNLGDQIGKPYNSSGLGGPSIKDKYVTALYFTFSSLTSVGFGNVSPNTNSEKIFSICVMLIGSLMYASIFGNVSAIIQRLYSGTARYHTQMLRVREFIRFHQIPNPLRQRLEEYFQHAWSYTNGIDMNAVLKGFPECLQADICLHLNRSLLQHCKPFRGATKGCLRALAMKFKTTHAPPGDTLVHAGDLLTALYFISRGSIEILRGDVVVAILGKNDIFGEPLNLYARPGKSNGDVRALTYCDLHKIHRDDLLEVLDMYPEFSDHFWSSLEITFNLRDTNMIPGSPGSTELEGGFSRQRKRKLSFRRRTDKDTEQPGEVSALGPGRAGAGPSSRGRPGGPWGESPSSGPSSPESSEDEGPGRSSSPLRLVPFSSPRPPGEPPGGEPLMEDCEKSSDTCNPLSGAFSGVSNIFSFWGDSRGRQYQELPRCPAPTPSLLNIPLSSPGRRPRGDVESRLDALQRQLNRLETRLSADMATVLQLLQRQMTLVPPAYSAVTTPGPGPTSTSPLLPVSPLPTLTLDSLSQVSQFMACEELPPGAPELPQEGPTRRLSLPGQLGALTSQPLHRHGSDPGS
Description: Displacement of [3H] dofetilide from human ERG channel expressed in HEK293 cells after 45 mins by scintillation counting method
`O=C(Nc1ccc(C(F)(F)F)cc1)NS(=O)(=O)c1ccc(OCCCCN2CCCC2)cc1` showed an IC50 of 49.1 µM. This counts as double-digit micromolar. The figure for `O=C(Nc1cc(Cl)ccc1Cl)NS(=O)(=O)c1ccc(OCCCCN2CCCCC2)cc1` is greater than 100 µM. The value for `CCOC(=O)C1CCN(CCCCOc2ccc(S(=O)(=O)NC(=O)Nc3ccccc3)cc2)CC1` was greater than 100 µM; that for `O=C(Nc1cccc2ccccc12)NS(=O)(=O)c1ccc(OCCCN2CCCC2)cc1` was greater than 100 µM. The figure for `O=C(Nc1ccccc1C(F)(F)F)NS(=O)(=O)c1ccc(OCCCN2CCCCC2)cc1` is greater than 100 µM.

`COc1ccc(NC(=O)NS(=O)(=O)c2ccc(OCCCN3CCCCC3)cc2)cc1` had an IC50 greater than 100 µM. The value for `Cc1ccc(NC(=O)NS(=O)(=O)c2ccc(OCCCN3CCCCC3)cc2)cc1` was greater than 100 µM; that for `CCOC(=O)C1CCN(CCCOc2ccc(S(N)(=O)=O)cc2)CC1` was 76.5 µM; that for `CCOC(=O)C1CCN(CCCCOc2ccc(S(N)(=O)=O)cc2)CC1` was 18.8 µM. The value for `CC(C)NC(=O)NS(=O)(=O)c1ccc(OCCN2CCCC2)cc1` was greater than 100 µM. Take `O=C(Nc1ccc(C(F)(F)F)cc1)NS(=O)(=O)c1ccc(OCCN2CCCC2)cc1`: the IC50 was greater than 100 µM. The figure for `O=C(Nc1ccc(C(F)(F)F)cc1)NS(=O)(=O)c1ccc(OCCN2CCCCC2)cc1` is greater than 100 µM; for `CCOC(=O)C1CCN(CCOc2ccc(S(=O)(=O)NC(=O)Nc3ccccc3)cc2)CC1` it is greater than 100 µM. The figure for `O=C(Nc1ccccc1)NS(=O)(=O)c1ccc(OCCCN2CCCCC2)cc1` is greater than 100 µM.
